Assay results reported in PMC10609081, “In Vivo Trafficking of the Anticancer Drug Tris(8-Quinolinolato) Gallium (III) (KP46) by Gallium-68/67 PET/SPECT Imaging” (Molecules, 2023).

Assays:
[1] = Octanol extraction of serum, urine and gut contents after oral radiolabelled KP46 (speciation); type: in vivo, mice; conditions: 4 h
Procedure: Serum and urine from the “tracer level” group (E) were subjected to octanol extraction 24 h postadministration to determine the fraction of ^67Ga that may have survived in the form of [^67Ga]KP46 after absorption from the gut.
Oral [^68/67Ga]KP46: The protocol for oral administration experiments reported here was devised on the basis of pilot experiments described in Supplementary Materials (Figure S12). For short-term (up to 4 h) studies with ^68Ga, awake (nonanaesthetised, to avoid suppressive effects of anaesthesia on digestive tract activity) mice that had been fasted for up to 14 h were given [^68Ga]KP46 (5–13 MBq) (group C, “tracer”, n = 3) or [^68Ga]KP46 and KP46 (5–8.5 MBq) (group D, “bulk”, n = 3) by oral gavage. The dose given orally to group D animals, prepared as described above, was 0.4 μmol in 400 μL, molar activity ca. 25 MBq/μmol. The mice were fasted for three hours before being anaesthetised and PET/CT scanned dynamically for one hour (see below for scanning protocol). After scanning, mice in both groups were culled by neck dislocation while still anaesthetised four hours post-oral administration for organ harvesting and gamma counting. Samples of blood, urine and contents of stomach, small intestine and large intestine (the organs/tissue with measurable activity; tumours were not included as they were insufficiently radioactive) from the mice in group C were used for octanol extraction (shake-flask method) to separate water-soluble (released) and lipid-soluble (intact KP46) ^68Ga. Serum samples were prepared by placing blood samples in a serum separator tube (brand VS367954, Fisher Scientific Ltd., Loughborough, UK) and centrifuging at 3000 rpm for 10 min. Serum (200–300 µL) and urine samples (150–180 µL, taken from the excised bladders) were directly added to Eppendorf tubes containing a pre-equilibrated mixture of octanol (500 µL) and water (500 µL). The tubes were vortexed for two minutes on a Multi Vortex Mixer V-32 (Grant Bio). After separation of layers, a sample of 400 µL from each layer was transferred to fresh Eppendorf tubes and analysed with a gamma counter. Stomach content (72–77 mg), small intestine content (35–88 mg), and large intestine content (86–100 mg) samples from each mouse were analysed similarly by adding them directly to Eppendorf tubes containing a pre-equilibrated mixture of octanol (500 µL) and water (500 µL) before vortexing and centrifuging at 10,000 rpm for 10 min at 4 °C. From each layer, 430 µL was transferred to fresh Eppendorf tubes and analysed with a gamma counter; the solid residues were also counted. Tissues from mice in group D were used after radioactive decay for measurements of nonradioactive ^69Ga content.

[2] = Ex vivo biodistribution 2 h after intravenous injection, nu/nu mice bearing A375 xenografts; type: in vivo; conditions: i.v., tracer level
Procedure: Figure S8. Ex vivo biodistribution of [ Ga]KP46 (tracer level) in nu/nu mice bearing A375 xenografts at two hours post i.v. injection via tail vein. […] Values are […]
expressed as mean ± SD (n = 3). (See below for methods)
Methodology for ex vivo biodistribution 2 h after intravenous injection of [68Ga]KP46 Mice were intravenously injected with tracer level [68Ga]KP46 and culled two hours post injection for organ harvesting and gamma counting. Consistent with the data shown in the main manuscript for 4 […]
[68Ga]KP46. Activity was also observed in the kidneys (30%ID/g for both kidneys) and urine, indicating excretion through urinary system. Significant activity was also seen in the lungs, heart, and small intestine (14.3 ± 0.6, 12.6 ± 1.7 and 12 ± 2.6 %ID/g, respectively), with minimal activity accumulating in the tumour (3.4 ± 0.4%ID/g) (Figure S8). […]

[3] = Pilot study 1: oral [68Ga]KP46, mice kept anaesthetised for four hours, ex vivo biodistribution; type: in vivo; conditions: anaesthetised 0-4 h
Procedure: 67Ga citrate to 67Ga chloride conversion method
67Ga was provided as [67Ga]Ga-citrate, typically 418-430 MBq in 5.5 ml at the time of receipt (76-78 MBq/ml). The 67Ga-citrate solution was passed through a Sep-Pak plus light silica cartridge (part number WAT023537) at a flow rate of 1 ml/min to trap the 67Ga on the silica cartridge. The eluate was passed through again to capture more (total 80%) of the available radioactivity on the cartridge.
The cartridge was then washed twice with 5 ml of H2O to remove citric acid, then eluted with 600 µl of 0.1 M HCl in 50 µl fractions. Fractions with the highest activity (fraction 4, 5, and 6) were used for […]
Tumour xenograft development
500 Figure S11. Tumour growth profile of A375
400 human melanoma cells in female athymic nude mice (2.5 x 10^6 cells). Data are 300 reported as mean ± SD (n=24).
Developing a method for the oral administration of [68Ga]KP46
In the first pilot study, mice bearing a tumour xenograft (A375) were anaesthetised, orally administered with [68Ga]KP46 (10 MBq, 400 µl) and PET scanned (no CT scan was performed) for four hours (n = 1), or orally administered with [68Ga]KP46 (1–2 MBq, 400 µl) and kept anaesthetised for four hours (n = 3), before being culled for organ harvesting and gamma counting. […]
radioactivity was in the stomach, with minimal uptake in the small intestine. […]

[4] = after removal of solids, octanol extraction, group C
[5] = not extracted into octanol or water, oral tracer (group C)
[6] = octanol extraction, oral tracer (group C)

Compound: [68Ga+3].[O-]c1cccc2cccnc12.[O-]c1cccc2cccnc12.[O-]c1cccc2cccnc12 [[^68Ga]KP46]
- soluble radioactivity in aqueous phase, large intestine [1, 4]: 95.5% ± 4.2%
- soluble radioactivity in aqueous phase, small intestine [1, 4]: 95% ± 2.5%
- soluble radioactivity in aqueous phase, stomach [1, 4]: 76.8% ± 8.7%
- activity present in solids, large intestine contents [1, 5]: 83.7% ± 8.8%
- activity present in solids, small intestine contents [1, 5]: 80.7% ± 19.4%
- activity present in solids, stomach contents [1, 5]: 82.9% ± 10.7%
- 68Ga in aqueous phase, serum [1, 6]: 98.6% ± 1.5%
- 68Ga in aqueous phase, urine [1, 6]: 98.2% ± 1.7%
- activity in kidneys, ex vivo ([2]; both kidneys): 30 %ID/g
- activity in heart, ex vivo ([2]; n = 3): 12.6 ± 1.7 %ID/g
- activity in liver, ex vivo ([2]; n = 3): 31.4 ± 3.8 %ID/g
- activity in lungs, ex vivo ([2]; n = 3): 14.3 ± 0.6 %ID/g
- activity in small intestine, ex vivo ([2]; n = 3): 12 ± 2.6 %ID/g
- activity in tumour, ex vivo ([2]; n = 3): 3.4 ± 0.4 %ID/g
- activity in tumour, ex vivo [3]: 0.6 ± 0.3 %ID/g
